Assay results taken from PubChem BioAssay (NCI).
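Exposure lasted 48 hours, with cells grown in 96-well plates and compounds tested at five concentrations. GI50: concentration for 50% inhibition of growth. TGI: total growth inhibition.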

How the values were obtained:
Assay in all cases: growth of human tumour cells (NCI), 48 h
SNB-75 CNS = system: SNB-75 CNS
A498 renal = system: A498 renal
K-562 leukemia = system: K-562 leukemia
HCC-2998 colon = system: HCC-2998 colon
HCT-15 colon = system: HCT-15 colon
UACC-62 melanoma = system: UACC-62 melanoma
SN12C renal = system: SN12C renal
HS 578T breast = system: HS 578T breast
SF-268 CNS = system: SF-268 CNS
SK-MEL-2 melanoma = system: SK-MEL-2 melanoma
KM12 colon = system: KM12 colon
NCI-H460 lung = system: NCI-H460 lung
CCRF-CEM leukemia = system: CCRF-CEM leukemia
U251 CNS = system: U251 CNS
MCF7 breast = system: MCF7 breast
OVCAR-5 ovarian = system: OVCAR-5 ovarian
T-47D breast = system: T-47D breast
SK-MEL-28 melanoma = system: SK-MEL-28 melanoma
HL-60(TB) leukemia = system: HL-60(TB) leukemia
SNB-19 CNS = system: SNB-19 CNS
OVCAR-8 ovarian = system: OVCAR-8 ovarian
MDA-MB-231 breast = system: MDA-MB-231 breast
CAKI-1 renal = system: CAKI-1 renal
SF-539 CNS = system: SF-539 CNS
HOP-62 NSCLC = system: HOP-62 NSCLC
PC-3 prostate = system: PC-3 prostate
MALME-3M melanoma = system: MALME-3M melanoma
SR leukemia = system: SR leukemia
NCI/ADR-RES ovarian = system: NCI/ADR-RES ovarian
NCI-H23 lung = system: NCI-H23 lung
IGROV1 ovarian = system: IGROV1 ovarian
EKVX NSCLC = system: EKVX NSCLC
MDA-MB-435 = system: MDA-MB-435
M14 melanoma = system: M14 melanoma
HOP-92 NSCLC = system: HOP-92 NSCLC
NCI-H522 lung = system: NCI-H522 lung
UACC-257 melanoma = system: UACC-257 melanoma
TK-10 renal = system: TK-10 renal
SK-MEL-5 melanoma = system: SK-MEL-5 melanoma
LOX IMVI melanoma = system: LOX IMVI melanoma
MOLT-4 leukemia = system: MOLT-4 leukemia
COLO 205 colon = system: COLO 205 colon
UO-31 renal = system: UO-31 renal
NCI-H226 lung = system: NCI-H226 lung
HCT-116 colon = system: HCT-116 colon
786-0 renal = system: 786-0 renal
SW-620 colon = system: SW-620 colon
SK-OV-3 ovarian = system: SK-OV-3 ovarian
BT-549 breast = system: BT-549 breast
SF-295 CNS = system: SF-295 CNS
HT29 colon = system: HT29 colon
ACHN renal = system: ACHN renal
OVCAR-3 ovarian = system: OVCAR-3 ovarian
OVCAR-4 ovarian = system: OVCAR-4 ovarian
DU-145 prostate = system: DU-145 prostate

c1ccc(-c2nc3ccccc3[nH]2)c(OCCCCCOc2ccccc2-c2nc3ccccc3[nH]2)c1
GI50 (SNB-75 CNS): 8.78 µM
TGI (SNB-75 CNS): 47.4 µM
GI50 (A498 renal): 12.1 µM
TGI (A498 renal): 25.5 µM
GI50 (K-562 leukemia): 4.35 µM
TGI (K-562 leukemia): > 100 µM
GI50 (HCC-2998 colon): 16.1 µM
TGI (HCC-2998 colon): 67.2 µM
GI50 (HCT-15 colon): 4.64 µM
TGI (HCT-15 colon): 18.4 µM
GI50 (UACC-62 melanoma): 12.8 µM
TGI (UACC-62 melanoma): 27.6 µM
GI50 (SN12C renal): 8.55 µM
TGI (SN12C renal): 24.5 µM
GI50 (HS 578T breast): 15.4 µM
TGI (HS 578T breast): 41 µM
GI50 (SF-268 CNS): 3.44 µM
TGI (SF-268 CNS): 23.2 µM
GI50 (SK-MEL-2 melanoma): 8.96 µM
TGI (SK-MEL-2 melanoma): 24.6 µM
GI50 (KM12 colon): 15.8 µM
TGI (KM12 colon): 72.4 µM
GI50 (NCI-H460 lung): 3.75 µM
TGI (NCI-H460 lung): 25.6 µM
GI50 (CCRF-CEM leukemia): 4.14 µM
TGI (CCRF-CEM leukemia): 29.8 µM
GI50 (U251 CNS): 12.5 µM
TGI (U251 CNS): 25.6 µM
GI50 (MCF7 breast): 2.3 µM
TGI (MCF7 breast): 7.51 µM
GI50 (OVCAR-5 ovarian): 20.2 µM
TGI (OVCAR-5 ovarian): 62.6 µM
GI50 (T-47D breast): 3.18 µM
TGI (T-47D breast): 18.6 µM
GI50 (SK-MEL-28 melanoma): 3.07 µM
TGI (SK-MEL-28 melanoma): 14 µM
GI50 (HL-60(TB) leukemia): 2.57 µM
TGI (HL-60(TB) leukemia): 7.76 µM
GI50 (SNB-19 CNS): 14.4 µM
TGI (SNB-19 CNS): 31.9 µM
GI50 (OVCAR-8 ovarian): 21.7 µM
TGI (OVCAR-8 ovarian): 53 µM
GI50 (MDA-MB-231 breast): 12.2 µM
TGI (MDA-MB-231 breast): 29.3 µM
GI50 (CAKI-1 renal): 12.5 µM
TGI (CAKI-1 renal): 29.9 µM
GI50 (SF-539 CNS): 3.44 µM
TGI (SF-539 CNS): 11.5 µM
GI50 (HOP-62 NSCLC): 22.1 µM
TGI (HOP-62 NSCLC): 52.5 µM
GI50 (PC-3 prostate): 7.64 µM
TGI (PC-3 prostate): 96.8 µM
GI50 (MALME-3M melanoma): 12.3 µM
TGI (MALME-3M melanoma): 44 µM
GI50 (SR leukemia): 2.27 µM
TGI (SR leukemia): 13.1 µM
GI50 (NCI/ADR-RES ovarian): 5.74 µM
TGI (NCI/ADR-RES ovarian): 33.3 µM
GI50 (NCI-H23 lung): 13.1 µM
TGI (NCI-H23 lung): 45.4 µM
GI50 (IGROV1 ovarian): 18.1 µM
TGI (IGROV1 ovarian): 47.1 µM
GI50 (EKVX NSCLC): 11.8 µM
TGI (EKVX NSCLC): 32.7 µM
GI50 (MDA-MB-435): 11.3 µM
TGI (MDA-MB-435): 29.3 µM
GI50 (M14 melanoma): 13.4 µM
TGI (M14 melanoma): 44.1 µM
GI50 (HOP-92 NSCLC): 2.55 µM
TGI (HOP-92 NSCLC): 14.7 µM
GI50 (NCI-H522 lung): 5.46 µM
TGI (NCI-H522 lung): 39.1 µM
GI50 (UACC-257 melanoma): 17.9 µM
TGI (UACC-257 melanoma): 65.3 µM
GI50 (TK-10 renal): 13 µM
TGI (TK-10 renal): 30.8 µM
GI50 (SK-MEL-5 melanoma): 6.07 µM
TGI (SK-MEL-5 melanoma): 19.5 µM
GI50 (LOX IMVI melanoma): 12.9 µM
TGI (LOX IMVI melanoma): 29.8 µM
GI50 (MOLT-4 leukemia): 5.58 µM
TGI (MOLT-4 leukemia): 47.5 µM
GI50 (COLO 205 colon): 8.49 µM
TGI (COLO 205 colon): 31.9 µM
GI50 (UO-31 renal): 11 µM
TGI (UO-31 renal): 36 µM
GI50 (NCI-H226 lung): 20 µM
TGI (NCI-H226 lung): 47.4 µM
GI50 (HCT-116 colon): 1.64 µM
TGI (HCT-116 colon): 3.24 µM
GI50 (786-0 renal): 15.9 µM
TGI (786-0 renal): 35.3 µM
GI50 (SW-620 colon): 3.18 µM
TGI (SW-620 colon): 12.9 µM
GI50 (SK-OV-3 ovarian): 14.2 µM
TGI (SK-OV-3 ovarian): 34 µM
GI50 (BT-549 breast): 13.5 µM
TGI (BT-549 breast): 33.3 µM
GI50 (SF-295 CNS): 15.3 µM
TGI (SF-295 CNS): 41.2 µM
GI50 (HT29 colon): 12.1 µM
TGI (HT29 colon): 44.1 µM
GI50 (ACHN renal): 13.1 µM
TGI (ACHN renal): 26.9 µM
GI50 (OVCAR-3 ovarian): 12 µM
TGI (OVCAR-3 ovarian): 24.7 µM
GI50 (OVCAR-4 ovarian): 2.92 µM
TGI (OVCAR-4 ovarian): 8.97 µM
GI50 (DU-145 prostate): 3.82 µM
TGI (DU-145 prostate): 14.8 µM
